Values quoted from earlier work as cited in US20190114390A1, “DRUG REPURPOSING BASED ON DEEP EMBEDDINGS OF GENE EXPRESSION PROFILES” (BioAge Labs, Inc., priority 2017, published 2019).

Assays:
[1] = known property
imidazole I-2 receptors = conditions: known property

For CN(C)C(=N)N=C(N)N [Metformin, metformin], the “effect on glucose levels” value [1] is listed as “lower glucose levels” and the “effect upon imidazole I-2 receptors” value (imidazole I-2 receptors) is listed as “direct inhibitory effect upon imidazole I-2 receptors”.
In the case of NC(=O)NC1NC(=O)NC1=O (stereo not shown) [allantoin], the “effect on glucose levels” value [1] is listed as “lowers glucose levels” and the “effect upon imidazole I-2 receptors” value (imidazole I-2 receptors) is listed as “direct inhibitory effect upon imidazole I-2 receptors”.
